# According to patent US20160375006A1, “USES OF PARALOG-SELECTIVE INHIBITORS OF GSK3 KINASES” (priority 2012, published 2016):
# Like-named read-outs stand apart in the source and are kept apart here.
# How the values were obtained:
# [1] = target: MST3 (Homo sapiens, UniProt Q9Y6E0)
# Protocol: (§1) This was completed utilizing one of two assays depending on the kinase being examined.
# (§2) A solution of IMAP binding reagent (IMAP Screening Express kit; Molecular Devices) (60 μL) was added to each well and incubated for 30 minutes.
# (§3) A solution of termination buffer (QuickScout Screening assist MSA; Carna Biosciences) (60 μL) was added to each well. The entire reaction mixture was then applied to a LabChip3000 system (Caliper Life Science) and the product and substrate peptide peaks were separated and quantified.
# (§4) The assay utilized was identical to that of the single point inhibitory activity determination (MSA) but run in dose response. […] A solution of termination buffer (QuickScout Screening assist MSA; Carna Biosciences) (60 μL) was added to each well. The entire reaction mixture was then applied to a LabChip3000 system (Caliper Life Science) and the product and substrate peptide peaks were separated and quantified.
# [2] = target: PKCβ2 (Homo sapiens, UniProt P05771)
# Protocol: as §1, §2, §3
# [3] = target: AMPKα1/β1/γ1 (Homo sapiens, UniProt Q13131)
# Description: as §1
# The assay utilized was identical to that of the single point inhibitory activity determination (MSA) but run in dose response.
# [4] = target: NEK4 (Homo sapiens, UniProt P51957)
# Protocol: as §1, §2, §3, §4
# [5] = target: ROCK2 (Homo sapiens, UniProt O75116)
# Protocol: as §1, §2, §3
# [6] = target: CRIK (Homo sapiens, UniProt O14578)
# Protocol: as §1, §2, §3
# [7] = target: PIM3 (Homo sapiens, UniProt Q86V86)
# Protocol: as §1, §2, §3
# [8] = target: GSK3β (Homo sapiens, UniProt P49841)
# Protocol: as §1, §2, §3, §4
# [9] = target: CDK7/CycH/MAT1 (Homo sapiens, UniProt P50613)
# Protocol: as §1, §2, §3, §4
# [10] = target: EEF2K (Homo sapiens, UniProt O00418)
# Protocol: as §1, §2, §3
# [11] = target: RSK2 (Homo sapiens, UniProt P51812)
# Protocol: as §1, §2, §3, §4
# [12] = target: MARK3 (Homo sapiens, UniProt P27448)
# Protocol: as §1, §2, §3, §4
# [13] = target: SYK (Homo sapiens, UniProt P43405)
# Protocol: as §1, §2, §3, §4
# [14] = target: TSSK3 (Homo sapiens, UniProt Q96PN8)
# Protocol: as §1, §2, §3, §4
# [15] = target: MAP2K5_Cascade (Homo sapiens, UniProt Q13163)
# Protocol: as §2, §3, §4
# [16] = target: BRSK2 (Homo sapiens, UniProt Q8IWQ3)
# Protocol: as §1, §2, §3, §4
# [17] = target: DYRK3 (Homo sapiens, UniProt O43781)
# Protocol: as §1, §2, §3, §4
# [18] = target: CDC7/ASK (Homo sapiens, UniProt O00311)
# Protocol: as §1, §2, §3, §4
# [19] = target: p38α (Homo sapiens, UniProt Q16539)
# Protocol: as §1, §2, §3, §4
# [20] = target: LOK (Homo sapiens, UniProt O94804)
# Protocol: as §1, §2, §3
# [21] = target: MINK (Homo sapiens, UniProt Q8N4C8)
# Protocol: as §1, §2, §3, §4
# [22] = target: IRAK1 (Homo sapiens, UniProt P51617)
# Protocol: as §1, §2, §3, §4
# [23] = target: MNK1 (Homo sapiens, UniProt Q9BUB5)
# Protocol: as §1, §2, §3, §4
# [24] = target: EPHB1 (Homo sapiens, UniProt P54762)
# Protocol: as §1, §2, §3, §4
# [25] = target: MER (Homo sapiens, UniProt Q12866)
# Protocol: as §1, §2, §3, §4
# [26] = target: NuaK1 (Homo sapiens, UniProt O60285)
# Protocol: as §1, §2, §3, §4
# [27] = target: DLK_Cascade (Homo sapiens, UniProt Q12852)
# Protocol: as §1, §2, §3, §4
# [28] = target: PKD2 (Homo sapiens, UniProt Q9BZL6)
# Protocol: as §1, §2, §3, §4
# [29] = target: KIT(V560G) (Homo sapiens, UniProt P10721, V560G)
# Protocol: as §1, §2, §3, §4
# [30] = target: p38δ (Homo sapiens, UniProt O15264)
# Protocol: as §1, §2, §3, §4
# [31] = target: PHKG1 (Homo sapiens, UniProt Q16816)
# Protocol: as §1, §2, §3, §4
# [32] = target: TEC (Homo sapiens, UniProt P42680)
# Protocol: as §1, §2, §3, §4
# [33] = target: PDGFRβ (Homo sapiens, UniProt P09619)
# Protocol: as §1, §2, §3, §4
# [34] = target: FAK (Homo sapiens, UniProt Q05397)
# Protocol: as §1, §2, §3, §4
# [35] = target: SRPK1 (Homo sapiens, UniProt Q96SB4)
# Protocol: as §1, §2, §3, §4
# [36] = target: ABL(E255K) (Homo sapiens, UniProt P00519, E255K)
# Protocol: as §1, §2, §3
# [37] = target: EPHA3 (Homo sapiens, UniProt P29320)
# Protocol: as §1, §2, §3, §4
# [38] = target: CK2α1/β (Homo sapiens, UniProt P68400)
# Protocol: as §1, §2, §3, §4
# [39] = target: TYRO3 (Homo sapiens, UniProt Q06418)
# Protocol: as §1, §2, §3
# [40] = target: RET(S891A) (Homo sapiens, UniProt P07949, S891A)
# Protocol: as §1, §2, §3, §4
# Sequence of GSK3β (P49841 whole entry): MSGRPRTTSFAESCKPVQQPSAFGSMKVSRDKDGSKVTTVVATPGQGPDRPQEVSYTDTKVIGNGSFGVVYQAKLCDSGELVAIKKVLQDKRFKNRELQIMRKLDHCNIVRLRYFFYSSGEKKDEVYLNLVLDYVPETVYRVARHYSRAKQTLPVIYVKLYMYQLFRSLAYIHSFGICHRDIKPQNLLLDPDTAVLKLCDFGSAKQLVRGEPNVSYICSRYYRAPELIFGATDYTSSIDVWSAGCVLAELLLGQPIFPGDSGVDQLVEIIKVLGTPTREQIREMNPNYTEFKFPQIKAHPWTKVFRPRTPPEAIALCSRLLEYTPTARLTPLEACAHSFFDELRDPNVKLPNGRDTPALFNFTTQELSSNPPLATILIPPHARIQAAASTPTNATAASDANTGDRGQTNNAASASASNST
# Sequence of LOK (O94804 whole entry): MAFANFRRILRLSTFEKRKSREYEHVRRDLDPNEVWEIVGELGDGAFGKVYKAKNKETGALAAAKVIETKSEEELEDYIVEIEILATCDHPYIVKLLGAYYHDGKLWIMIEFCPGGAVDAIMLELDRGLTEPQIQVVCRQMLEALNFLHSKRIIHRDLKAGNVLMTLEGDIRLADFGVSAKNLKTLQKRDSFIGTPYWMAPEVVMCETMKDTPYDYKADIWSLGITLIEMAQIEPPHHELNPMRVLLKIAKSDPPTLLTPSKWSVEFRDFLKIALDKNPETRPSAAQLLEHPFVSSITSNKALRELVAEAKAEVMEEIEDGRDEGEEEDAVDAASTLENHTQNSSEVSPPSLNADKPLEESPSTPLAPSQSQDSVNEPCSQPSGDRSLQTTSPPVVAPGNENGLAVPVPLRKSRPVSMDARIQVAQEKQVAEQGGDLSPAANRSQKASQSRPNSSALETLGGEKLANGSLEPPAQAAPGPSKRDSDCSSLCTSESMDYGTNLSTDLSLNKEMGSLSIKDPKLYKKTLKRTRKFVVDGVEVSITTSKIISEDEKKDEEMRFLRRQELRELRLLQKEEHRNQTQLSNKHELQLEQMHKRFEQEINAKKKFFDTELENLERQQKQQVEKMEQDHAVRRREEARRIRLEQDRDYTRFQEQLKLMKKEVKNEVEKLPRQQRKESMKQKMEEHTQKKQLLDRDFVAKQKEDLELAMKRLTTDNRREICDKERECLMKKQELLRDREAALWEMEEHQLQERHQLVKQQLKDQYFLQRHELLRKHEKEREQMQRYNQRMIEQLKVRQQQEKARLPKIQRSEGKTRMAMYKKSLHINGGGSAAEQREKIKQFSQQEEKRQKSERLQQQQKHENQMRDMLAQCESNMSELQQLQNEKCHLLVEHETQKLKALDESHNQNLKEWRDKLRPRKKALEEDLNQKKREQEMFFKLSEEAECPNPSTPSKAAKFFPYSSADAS
# Sequence of MER (Q12866 21-999): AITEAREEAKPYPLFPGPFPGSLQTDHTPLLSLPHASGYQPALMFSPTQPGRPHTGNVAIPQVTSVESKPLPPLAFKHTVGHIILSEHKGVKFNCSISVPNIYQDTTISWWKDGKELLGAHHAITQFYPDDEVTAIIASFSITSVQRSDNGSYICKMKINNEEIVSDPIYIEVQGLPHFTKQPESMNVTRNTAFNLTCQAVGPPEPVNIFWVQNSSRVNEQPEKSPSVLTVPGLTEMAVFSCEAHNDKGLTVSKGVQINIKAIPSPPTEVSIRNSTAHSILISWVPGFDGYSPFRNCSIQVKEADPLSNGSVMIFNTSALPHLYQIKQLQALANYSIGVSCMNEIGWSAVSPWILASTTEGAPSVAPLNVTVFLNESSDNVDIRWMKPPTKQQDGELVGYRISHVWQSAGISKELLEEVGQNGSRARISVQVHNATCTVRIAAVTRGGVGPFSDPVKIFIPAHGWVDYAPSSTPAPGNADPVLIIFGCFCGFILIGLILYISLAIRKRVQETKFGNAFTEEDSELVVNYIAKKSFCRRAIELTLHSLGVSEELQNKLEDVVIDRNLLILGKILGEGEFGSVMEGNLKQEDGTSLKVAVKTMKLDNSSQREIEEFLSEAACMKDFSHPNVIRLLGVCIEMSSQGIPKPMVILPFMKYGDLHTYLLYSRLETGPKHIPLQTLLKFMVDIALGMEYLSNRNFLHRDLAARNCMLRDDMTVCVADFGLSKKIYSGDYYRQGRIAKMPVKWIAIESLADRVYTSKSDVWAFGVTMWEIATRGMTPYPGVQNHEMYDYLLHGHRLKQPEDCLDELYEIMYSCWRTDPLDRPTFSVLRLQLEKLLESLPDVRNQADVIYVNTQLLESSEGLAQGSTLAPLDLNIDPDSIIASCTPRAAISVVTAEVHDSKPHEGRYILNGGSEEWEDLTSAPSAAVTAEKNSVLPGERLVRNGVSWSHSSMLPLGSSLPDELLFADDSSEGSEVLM
# Sequence of KIT(V560G) (P10721 26-976 V560G): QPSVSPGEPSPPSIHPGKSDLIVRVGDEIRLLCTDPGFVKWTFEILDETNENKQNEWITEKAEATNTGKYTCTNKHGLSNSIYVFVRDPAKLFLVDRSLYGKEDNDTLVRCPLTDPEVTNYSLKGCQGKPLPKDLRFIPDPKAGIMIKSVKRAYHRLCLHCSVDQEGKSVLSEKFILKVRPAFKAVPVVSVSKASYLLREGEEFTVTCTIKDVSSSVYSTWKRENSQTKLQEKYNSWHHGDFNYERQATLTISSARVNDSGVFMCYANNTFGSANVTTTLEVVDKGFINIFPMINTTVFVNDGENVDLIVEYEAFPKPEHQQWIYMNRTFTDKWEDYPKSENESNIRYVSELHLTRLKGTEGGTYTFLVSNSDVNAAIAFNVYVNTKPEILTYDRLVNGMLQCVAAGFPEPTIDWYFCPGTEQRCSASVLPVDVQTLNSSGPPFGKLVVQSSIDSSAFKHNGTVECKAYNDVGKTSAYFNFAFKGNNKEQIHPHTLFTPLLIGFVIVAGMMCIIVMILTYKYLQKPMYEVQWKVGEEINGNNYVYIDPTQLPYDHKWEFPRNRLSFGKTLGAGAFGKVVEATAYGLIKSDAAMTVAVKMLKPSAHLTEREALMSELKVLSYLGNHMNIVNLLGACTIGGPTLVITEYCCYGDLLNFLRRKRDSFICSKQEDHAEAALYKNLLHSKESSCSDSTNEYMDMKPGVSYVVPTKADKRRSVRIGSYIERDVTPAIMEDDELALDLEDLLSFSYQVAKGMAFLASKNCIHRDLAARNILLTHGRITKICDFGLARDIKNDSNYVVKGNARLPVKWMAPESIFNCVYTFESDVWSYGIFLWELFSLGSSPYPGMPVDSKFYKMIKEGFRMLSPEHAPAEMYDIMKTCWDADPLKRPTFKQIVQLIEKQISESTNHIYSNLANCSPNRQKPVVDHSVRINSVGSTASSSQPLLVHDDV
# Sequence of ROCK2 (O75116 whole entry): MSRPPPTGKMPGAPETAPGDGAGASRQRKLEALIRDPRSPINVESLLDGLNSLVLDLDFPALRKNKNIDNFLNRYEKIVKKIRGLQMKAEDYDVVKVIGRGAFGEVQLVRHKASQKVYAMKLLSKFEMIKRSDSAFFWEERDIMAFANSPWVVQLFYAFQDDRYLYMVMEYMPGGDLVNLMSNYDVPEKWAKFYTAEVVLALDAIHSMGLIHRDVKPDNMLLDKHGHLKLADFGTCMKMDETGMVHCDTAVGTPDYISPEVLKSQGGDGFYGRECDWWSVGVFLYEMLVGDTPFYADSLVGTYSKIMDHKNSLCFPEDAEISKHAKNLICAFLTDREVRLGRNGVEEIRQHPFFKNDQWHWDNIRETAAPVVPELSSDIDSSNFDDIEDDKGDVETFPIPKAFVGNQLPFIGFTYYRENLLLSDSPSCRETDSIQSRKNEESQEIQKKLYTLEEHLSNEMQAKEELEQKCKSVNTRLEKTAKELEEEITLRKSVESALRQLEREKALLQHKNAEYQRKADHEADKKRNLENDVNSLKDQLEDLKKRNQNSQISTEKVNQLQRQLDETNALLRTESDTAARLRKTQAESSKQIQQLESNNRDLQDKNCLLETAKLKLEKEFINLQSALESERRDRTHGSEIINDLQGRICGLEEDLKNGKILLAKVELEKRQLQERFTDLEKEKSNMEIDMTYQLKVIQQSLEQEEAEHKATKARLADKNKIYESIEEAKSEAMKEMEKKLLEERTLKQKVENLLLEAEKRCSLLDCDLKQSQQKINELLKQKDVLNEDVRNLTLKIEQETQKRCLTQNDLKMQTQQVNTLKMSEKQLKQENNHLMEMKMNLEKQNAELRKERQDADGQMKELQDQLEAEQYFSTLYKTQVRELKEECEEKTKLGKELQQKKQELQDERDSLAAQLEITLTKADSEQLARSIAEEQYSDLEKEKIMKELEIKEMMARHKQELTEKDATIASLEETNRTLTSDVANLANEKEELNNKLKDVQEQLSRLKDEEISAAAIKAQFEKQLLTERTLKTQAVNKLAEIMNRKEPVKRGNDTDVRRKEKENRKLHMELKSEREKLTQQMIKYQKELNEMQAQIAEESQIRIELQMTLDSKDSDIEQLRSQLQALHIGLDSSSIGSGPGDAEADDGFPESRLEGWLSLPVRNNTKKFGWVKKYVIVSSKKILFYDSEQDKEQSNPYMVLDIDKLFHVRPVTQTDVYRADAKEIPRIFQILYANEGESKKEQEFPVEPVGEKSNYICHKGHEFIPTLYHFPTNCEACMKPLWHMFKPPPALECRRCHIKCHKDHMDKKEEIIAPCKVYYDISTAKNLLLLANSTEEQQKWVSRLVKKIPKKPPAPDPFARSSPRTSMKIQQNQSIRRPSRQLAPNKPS
# Sequence of p38α (Q16539 whole entry): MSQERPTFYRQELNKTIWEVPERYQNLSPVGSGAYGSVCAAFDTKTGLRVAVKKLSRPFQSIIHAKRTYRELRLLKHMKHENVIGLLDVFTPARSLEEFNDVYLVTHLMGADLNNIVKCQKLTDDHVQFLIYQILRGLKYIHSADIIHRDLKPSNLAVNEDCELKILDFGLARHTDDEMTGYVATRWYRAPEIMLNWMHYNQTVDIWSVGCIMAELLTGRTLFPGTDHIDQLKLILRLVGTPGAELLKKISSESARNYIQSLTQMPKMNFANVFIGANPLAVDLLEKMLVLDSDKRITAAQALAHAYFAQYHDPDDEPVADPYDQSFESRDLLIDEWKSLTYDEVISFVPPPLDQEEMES
smiles,measurement,setting,value
CC[C@@]1(c2ccccc2)C2=C(CC(C)(C)CC2=O)Nc2n[nH]cc21 [BRD0705],% Inhibition at 10 μM,[1],11.7%
same,% Inhibition at 10 μM,[2],−5.7%
same,% Inhibition at 10 μM,[3],−4.1%
same,% Inhibition at 10 μM,[4],−5.1%
same,% Inhibition at 10 μM,[5],−5.8%
same,% Inhibition at 10 μM,[6],−15.2%
same,% Inhibition at 10 μM,[7],1.2%
same,% Inhibition at 10 μM,[8],96.5%
same,IC50,[8]; read-out: IC50 GSK3β,0.488 µM
same,% Inhibition at 10 μM,[9],8.3%
same,% Inhibition at 10 μM,[10],−6.4%
same,% Inhibition at 10 μM,[11],0.4%
same,% Inhibition at 10 μM,[12],−5.3%
same,% Inhibition at 10 μM,[13],0.6%
same,% Inhibition at 10 μM,[14],3.5%
same,% Inhibition at 10 μM,[15],−2.3%
same,% Inhibition at 10 μM,[16],1.8%
same,% Inhibition at 10 μM,[17],7.7%
same,% Inhibition at 10 μM,[18],−7.2%
same,% Inhibition at 10 μM,[19],−8.5%
same,% Inhibition at 10 μM,[20],9.6%
same,% Inhibition at 10 μM,[21],2.4%
same,% Inhibition at 10 μM,[22],3.1%
same,% Inhibition at 10 μM,[23],−5.2%
same,% Inhibition at 10 μM,[24],−9.9%
same,% Inhibition at 10 μM,[25],−3.3%
same,% Inhibition at 10 μM,[26],−2.0%
same,% Inhibition at 10 μM,[27],−1.1%
same,% Inhibition at 10 μM,[28],−22.1%
same,% Inhibition at 10 μM,[29],−1.7%
same,% Inhibition at 10 μM,[30],2.4%
same,% Inhibition at 10 μM,[31],−2.5%
same,% Inhibition at 10 μM,[32],−0.4%
same,% Inhibition at 10 μM,[33],0.3%
same,% Inhibition at 10 μM,[34],−3.9%
same,% Inhibition at 10 μM,[35],−2.0%
same,% Inhibition at 10 μM,[36],−0.3%
same,% Inhibition at 10 μM,[37],25.2%
same,% Inhibition at 10 μM,[38],−6.0%
same,% Inhibition at 10 μM,[39],3.8%
same,% Inhibition at 10 μM,[40],−3.1%
CC(C)(C)Cc1[nH]nc2c1[C@](C)(c1ccccc1)C1=C(CC(C)(C)CC1=O)N2 [BRD3731],% Inhibition 10 μM,[1]; 10 μM,7.4%
same,% Inhibition 10 μM,[2]; 10 μM,3.8%
same,% Inhibition 10 μM,[3]; 10 μM,11.2%
same,% Inhibition 10 μM,[4]; 10 μM,−4.8%
same,% Inhibition 10 μM,[5]; 10 μM,−0.5%
same,% Inhibition 10 μM,[6]; 10 μM,−0.7%
same,% Inhibition 10 μM,[7]; 10 μM,13.1%
same,% Inhibition 10 μM,[8],100.7%
same,IC50,[8],0.027 µM
same,% Inhibition 10 μM,[9]; 10 μM,21.3%
same,% Inhibition 10 μM,[10]; 10 μM,3.9%
same,% Inhibition 10 μM,[11]; 10 μM,42.8%
same,% Inhibition 10 μM,[12]; 10 μM,−2.1%
same,% Inhibition 10 μM,[13]; 10 μM,−11.0%
same,% Inhibition 10 μM,[14]; 10 μM,33.6%
same,% Inhibition 10 μM,[15]; 10 μM,6.1%
same,% Inhibition 10 μM,[16]; 10 μM,−2.9%
same,% Inhibition 10 μM,[17]; 10 μM,16.0%
same,% Inhibition 10 μM,[18]; 10 μM,−3.1%
same,% Inhibition 10 μM,[19]; 10 μM,0.9%
same,% Inhibition 10 μM,[20]; 10 μM,−1.0%
same,% Inhibition 10 μM,[21]; 10 μM,2.2%
same,% Inhibition 10 μM,[22]; 10 μM,1.2%
same,% Inhibition 10 μM,[23]; 10 μM,−4.1%
same,% Inhibition 10 μM,[24]; 10 μM,2.7%
same,% Inhibition 10 μM,[25]; 10 μM,33.7%
same,% Inhibition 10 μM,[26]; 10 μM,−0.9%
same,% Inhibition 10 μM,[27]; 10 μM,0.9%
same,% Inhibition 10 μM,[28]; 10 μM,17.2%
same,% Inhibition 10 μM,[29]; 10 μM,1.4%
same,% Inhibition 10 μM,[30]; 10 μM,−0.2%
same,% Inhibition 10 μM,[31]; 10 μM,13.9%
same,% Inhibition 10 μM,[32]; 10 μM,2.3%
same,% Inhibition 10 μM,[33]; 10 μM,3.1%
same,% Inhibition 10 μM,[34]; 10 μM,2.3%
same,% Inhibition 10 μM,[35]; 10 μM,5.0%
same,% Inhibition 10 μM,[36]; 10 μM,8.3%
same,% Inhibition 10 μM,[37]; 10 μM,3.0%
same,% Inhibition 10 μM,[38]; 10 μM,−2.1%
same,% Inhibition 10 μM,[39]; 10 μM,−3.5%
same,% Inhibition 10 μM,[40]; 10 μM,−0.6%
